Reference: article PMC7083851, “Extended pharmacodynamic responses observed upon PROTAC-mediated degradation of RIPK2” (Communications Biology, 2020)
Several values for one entry are separate records, joined by “and”; a condition that tells them apart may be missing. Identical values can stand only once.

Legend:
[1] = tested on: L18-MDP-stimulated TNFα release; assay: TNFα after ex vivo L18-MDP stimulation of blood from dosed rats; assay type: in vivo, rat; design: key to TNFα after ex vivo L18-MDP stimulation: % of pre-dose or vehicle sample; conditions: for TNFa level after ex vivo L18-MDP stimulation vs pre-dose, individual rat: 20 mg/kg SC single dose, 7-day study; for TNFα after ex vivo L18-MDP stimulation: fig 5b; for TNFa: fig 5e, individual rats 6-10, time 0 = 100; for TNFα inhibition (ex vivo L18-MDP): 0.05 mg/kg/day QD SC
Procedure: Male CD or Wistar Han rats (7–9 weeks old, Charles River UK Ltd.) were randomly allocated to treatment groups upon arrival. Female CD rats (7–8 weeks old on arrival, Charles River Ltd.) were placed into groups using a randomization schedule based on body weight prior to the study start. All animals were acclimatized for a minimum of one week prior to the experiment commencing.
Subcutaneous PROTAC solution formulations were prepared on the day of dosing as outlined below and filtered through a 0.22 µm Millex PVDF filter (Millipore) prior to PROTAC administration. PROTAC 4 was dissolved in saline with the pH adjusted to 5.0 with sodium hydroxide (1 M).
Ex vivo stimulation of rat blood with L18-MDP for PD: PPD blood samples taken prior to PROTAC administration or at fixed timepoints post PROTAC administration through the course of the study, were treated ex vivo with 100 ng/mL L18-MDP (Invivogen) or vehicle (0.1% DMSO) and incubated for 4 h. Following centrifugation, plasma was collected for cytokines analysis as detailed in cytokines assay section. Additionally, RIPK2 levels were determined in PBMCs isolated from blood and where collected, in sampled colon tissue as described in the text.
(§1) Cytokine measurement assay: Cytokine levels were measured in rat plasma or rat PBMCs cell culture supernatants using rat V-Plex TNFα, in human plasma or human PBMCs cell culture supernatants with either TNFα tissue culture or 7-plex kit. Rat serum and tissues samples from the in vivo L18-MDP acute inflammation model were analyzed using the rat TNFα, Il-6 and IL-8 U-Plex kits. All kits provided by Meso Scale Discovery (MSD). Levels of cytokines spontaneously released from human colon biopsies cell culture supernatants were measured using Human IL-1 beta/IL-1F2 DuoSet ELISA (Bio-techne), Human IL-6 ELISA (Immunotools) and Human TNF-alpha DuoSet ELISA (Bio-techne). All samples were processed accordingly to the manufacturer’s instructions. The MSD plates were analyzed using the MSD sector imager 6000 plate reader and cytokines concentration (pg/ml) was obtained by using the MSD DISCOVERY WORKBENCH software version 4.0.12.1
Statistics and reproducibility: All data were represented as percentage of the control sample: DMSO treated cells for the in vitro assays and the pre-dose or vehicle sample for the in vivo experiments.

Hepatocyte CLint, human = assay type: in vitro ADME; conditions: human liver hepatocytes
Procedure: Metabolic stability was performed at Cyprotex (UK). Pooled liver microsomes / cryopreserved pooled hepatocytes were purchased from a commercial supplier (BD Biosciences or Corning/InVitro Technologies).
The final incubation volume was 500 µL. An appropriate vehicle control was used. Each compound was incubated for 0, 5, 10, 20, 40, and 60 min. The control (vehicle) was incubated for 60 min.
All incubations were terminated by transferring 50 μL of incubate to 100 μL of acetonitrile containing internal standard at the appropriate time points. The termination plates were centrifuged at 2500 rpm for 20–30min at 4 °C to precipitate the protein. Following protein precipitation, samples were analysed using quantitative LC-MS/MS.

cIAP1 = target: T1, cIAP1 (Homo sapiens, UniProt Q13490); assay type: cell-based; conditions: human PBMCs, 24 h, 1uM
T1 construct: endogenous in cells; host or cells: primary human PBMCs
Procedure: Where the assessment of cytokines was performed, L18-MDP was added to the cell culture media (1 μg/ml) or to the rat blood samples (100 ng/ml) and samples were incubated for up to 4 h. […] Samples were them spun down at 1000 g and the cell culture supernatant, plasma or serum were collected for cytokines assessment, while cell pellets were used for RIPK2 and/or cIAP1, cIAP2, and XIAP levels analysis via immunoblotting.
Simple Western immunoassay: Cell lysates were mixed with 5× concentrated master mix (Protein Simple) and denatured at 95 °C on a heat block for 5 min together with the provided ladder (Protein Simple). Antibodies were diluted in the provided buffer as following: anti-RIPK2 (1:10 or 1:50), anti-cIAP1(1:10), anti-cIAP2 (1:10), anti-XIAP (1:10), mouse anti-β-actin (Abcam - 1:1000), rabbit anti-β-actin (Abcam - 1:50) and anti-vinculin (1:100). All reagents (blocking buffer, primary and secondary antibodies, streptavadin, luminol/peroxide, separation matrix, stacking matrix and water) were added to the Protein Simple plate containing the ladder and lysates and the plate was placed in a Protein Simple Western instrument and the Simple Western default size assay protocol was used. […] The area under the peak values obtained for RIPK2, cIAP1, cIAP2 or XIAP were normalized relative to the control protein values.

[2] = tested on: L18-MDP-induced cytokine release; assay: In vivo L18-MDP acute inflammation model, distal colon cytokines; design: species or system rat; key to cytokine level (fig 6g) / cytokine level (fig 6h) / cytokine level (fig 6i): cytokine concentration in pg/ml (MSD U-Plex); conditions: for cytokine level (fig 6g) / cytokine level (fig 6i) / cytokine level (fig 6h): distal colon, individual rats, beside L18-MDP control
Procedure: Cytokine levels were determined in serum generated from the terminal blood samples and in tissue lysates as detailed below.
as §1

T1 sequence (Q13490 whole entry): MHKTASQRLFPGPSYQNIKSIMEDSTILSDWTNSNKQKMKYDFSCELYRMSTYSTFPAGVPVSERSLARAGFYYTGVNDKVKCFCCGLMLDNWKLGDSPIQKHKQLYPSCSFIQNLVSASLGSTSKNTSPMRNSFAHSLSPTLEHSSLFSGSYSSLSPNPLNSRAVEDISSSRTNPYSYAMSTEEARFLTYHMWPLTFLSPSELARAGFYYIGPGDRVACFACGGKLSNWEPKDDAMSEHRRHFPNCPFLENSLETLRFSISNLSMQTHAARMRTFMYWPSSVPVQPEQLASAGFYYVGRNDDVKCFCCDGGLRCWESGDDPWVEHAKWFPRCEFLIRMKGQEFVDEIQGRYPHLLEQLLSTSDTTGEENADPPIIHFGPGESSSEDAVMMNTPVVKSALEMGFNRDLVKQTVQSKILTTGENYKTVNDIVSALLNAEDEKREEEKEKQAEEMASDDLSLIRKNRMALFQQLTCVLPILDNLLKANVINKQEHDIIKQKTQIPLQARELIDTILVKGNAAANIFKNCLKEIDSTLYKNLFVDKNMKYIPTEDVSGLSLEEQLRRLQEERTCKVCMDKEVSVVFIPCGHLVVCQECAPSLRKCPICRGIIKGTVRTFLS

## CN[C@@H](C)C(=O)N[C@H](C(=O)N1CCC[C@H]1c1nc(C(=O)c2ccc(F)cc2)cs1)C1CCN(C(=O)c2cnc(N3CCN(CCOc4cc5ncnc(Nc6n[nH]c(C)c6C)c5cc4S(=O)(=O)C(C)(C)C)CC3)nc2)CC1 [PROTAC 4]
[1]; 8 h
  TNFa level after ex vivo L18-MDP stimulation vs pre-dose, individual rat: 9.24% and 8.84% and 7.78% and 9.53% and 3.34%
[1]; 24 h
  TNFa level after ex vivo L18-MDP stimulation vs pre-dose, individual rat: 3.87% and 3.74% and 8.65% and 6.37% and 4.55%
[1]; 72 h
  TNFa level after ex vivo L18-MDP stimulation vs pre-dose, individual rat: 10.34% and 56.63% and 10.25% and 43.76% and 3.57%
[1]; 168 h
  TNFa level after ex vivo L18-MDP stimulation vs pre-dose, individual rat: 12.29% and 8.70% and 24.16% and 13.36% and 15.12%
[1]; single 20 mg/kg SC, throughout the 7-day study
  TNFα inhibition following ex vivo L18-MDP stimulation in rat blood: > 70%
Hepatocyte CLint, human
  clearance in hepatocytes: < 0.45 mL/min/g liver

## CN[C@@H](C)C(=O)N[C@H](C(=O)N1C[C@@H](NC(=O)c2cnc(N3CCN(CCCOc4cc5ncnc(Nc6n[nH]c(C)c6C)c5cc4S(=O)(=O)C(C)(C)C)CC3)cn2)C[C@H]1C(=O)Nc1c(F)cccc1F)C(C)(C)C [PROTAC 6]
cIAP1
  reduction in cIAP1 levels: ~ 25%
[1]; 0.005 mg/kg, time 6 h, rats 6-10
  TNFα after ex vivo L18-MDP stimulation: 103.74 and 107.75 and 89.01 and 67.06 and 122.94
[1]; 0.005 mg/kg, time 96 h, rats 6-10
  TNFα after ex vivo L18-MDP stimulation: 59.51 and 62.83 and 97.91 and 70.36 and 61.76
[1]; 0.05 mg/kg, time 48 h, rats 11-15
  TNFα after ex vivo L18-MDP stimulation: 25.93 and 24.59 and 27.99 and 42.15 and 37.98
[1]; time 24 h
  TNFa: 0.86 and 0.61 and 0.92 and 2.90 and 3.38
[1]; time 72 h
  TNFa: 13.57 and 6.85 and 8.80 and 22.86
[1]; rat, 0.05 mg/kg Q3D SC
  cumulative PD effect, in words: failed to show this cumulative PD effect
[1]; rat, 6 h post-dose
  TNFα inhibition (ex vivo L18-MDP): ~ 60%
[1]; rat, 24 h post-dose
  TNFα inhibition (ex vivo L18-MDP): ~ 60%
[1]; rat, 54 h (6 h after third dose)
  TNFα inhibition (ex vivo L18-MDP): > 90%
[1]; rat, 0.5 mg/kg/day QD SC, 24 h
  inhibition of TNFα release (ex vivo L18-MDP): > 90%
[1]; rat, single 0.005 mg/kg SC
  effect on TNFα levels, in words: no significant effect
[1]; rat, single 0.05 mg/kg SC, first 48 h
  inhibition of TNFα release upon ex vivo L18-MDP challenge: > 60%
[1]; rat, single 0.5 mg/kg SC, over the duration of the study (5 days)
  inhibition of TNFα levels upon ex vivo whole blood L18-MDP challenge: > 70%
[1]; time 72 h, rats 11-15, fig 5d
  TNFa (time 0 = 100): 91.60 and 114.81 and 76.37 and 83.72
[2]; time 6 h
  cytokine level (fig 6g): 8.69 and 8.02 and 5.35 and 6.46 and 7.8
  cytokine level (fig 6i): 31.46 and 23.18 and 30.08 and 19.04 and 32.01
  cytokine level (fig 6h): 3.67 and 4.23 and 2.54 and 4.43 and 8.37
[2]; time 24 h
  cytokine level (fig 6g): 4.03 and 4.53 and 7.05 and 7.3
  cytokine level (fig 6i): 16.22 and 17.82 and 19.15 and 9.84 and 7.71
  cytokine level (fig 6h): 8.38 and 32.32 and 14.19
[2]; time 72 h
  cytokine level (fig 6g): 28.89 and 34.42 and 15.25 and 46.36 and 44.94
  cytokine level (fig 6i): 33.56 and 43.62 and 27.96 and 81.66 and 38.4
  cytokine level (fig 6h): 48.27 and 55.56 and 29.21 and 61.98 and 48.03
[2]; time 240 h
  cytokine level (fig 6g): 191.84 and 104.55 and 3.3 and 94.35
  cytokine level (fig 6i): 85.43 and 111.93 and 35.63 and 31.07
  cytokine level (fig 6h): 84.17 and 74.27 and 51.45 and 69.43
[2]; time 408 h
  cytokine level (fig 6g): 87.06 and 148.63 and 32.92 and 94.97 and 44.56
  cytokine level (fig 6i): 82.16 and 113.16 and 73.99 and 122.46 and 42.47
  cytokine level (fig 6h): 89.41 and 138.46 and 73.92 and 116.87 and 57.61
[2]; rat, 0.3 mg/kg SC, intravenous L18-MDP challenge
  release of TNFα and IL-8 in distal colon, in words: significantly inhibited for up to six days post-dose
